Laboratory results as given in US9796742B2, “Kinase inhibitors” (Respivert Limited, priority 2012, dated 2017).
Read-outs that look alike come from different tables or passages of the source.

Columns and labels:
d-U937 cells = test: LPS-induced TNFα/IL-8 release in d-U937 cells; assay type: cell-based; conditions: Homo sapiens, dU937, LPS-stimulated d-U937 cells
Method: U937 cells, a human monocytic cell line, are differentiated to macrophage-type cells by incubation with phorbol myristate acetate (PMA; 100 ng/mL) for 48 to 72 hr. Cells are pre-incubated with final concentrations of test compound for 2 hr and are then stimulated with 0.1 μg/mL of LPS (from E. Coli: O111:B4, Sigma) for 4 hr. The supernatant is collected for determination of TNFα and IL-8 concentrations by sandwich ELISA (Duo-set, R&D systems). The inhibition of TNFα production is calculated as a percentage of that achieved by 10 μg/mL of BIRB796 at each concentration of test compound by comparison against vehicle control. The relative 50% effective concentration (REC50) is determined from the resultant concentration-response curve. The inhibition of IL-8 production is calculated at each concentration of test compound by comparison with vehicle control. The 50% inhibitory concentration (IC50) is determined from the resultant concentration-response curve.

PBMCs [1] = test: LPS-induced TNFα/IL-8 release in PBMC cells; assay type: cell-based; conditions: Homo sapiens, LPS-stimulated PBMCs, IL-8, read-out: IC50 Values for Inhibition of Cytokine Release, PBMCs IL-8
In short: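 Human PBMCs from healthy donors, isolated by density gradient, were pretreated with compound for 2 h and then stimulated with 1 ng/mL LPS (E. coli 0111:B4) for 24 h at 37° C, 5% CO2. Supernatant IL-8 and TNFα were measured by sandwich ELISA, and IC50 was taken from the dose-response curve.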

p38 MAPKα = p38 MAPKα (Homo sapiens (Human), UniProt Q16539); test: p38 MAPKα enzyme inhibition (FRET, Z-LYTE; Method 2); assay type: biochemical
In short: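 p38 MAPKα (2.5 μL of 200 ng/mL stock) preincubated 2 h at RT with compound, then kinase reaction 1 h at RT with readout via MAPKAP-K2 activation using a Z-LYTE FRET peptide. Protease development 1 h; coumarin/fluorescein emission ratio gives phosphorylation. % inhibition versus uninhibited control; IC50 from concentration-response curve.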

c-Src = c-Src (Homo sapiens (Human), UniProt P12931); test: c-Src enzyme inhibition (FRET, Z-LYTE); assay type: biochemical
In short: (§1)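 Z-LYTE FRET peptide assay with enzyme preincubated with compound for 2 h at RT, then 1 h kinase reaction and 1 h protease development. ATP solutions were 800 μM for c-Src and 60 μM for Syk. Inhibition was taken from the coumarin/fluorescein emission ratio, and IC50 from concentration-response curves.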

Syk = Syk (Homo sapiens (Human), UniProt P43405); test: Syk enzyme inhibition (FRET, Z-LYTE); assay type: biochemical
In short: as §1

GSK3α = GSK3α (Homo sapiens (Human), UniProt P49840); test: GSK 3α enzyme inhibition (FRET, Z-LYTE; Method 2); assay type: biochemical
In short: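 GSK3-α protein preincubated with compound for 105 min, then Z-LYTE FRET peptide and ATP added for 1 h before protease development for 1 h. Phosphorylation taken from coumarin/fluorescein emission ratio; percent inhibition against uninhibited control and IC50 calculated from concentration-response curves.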

HT29 cells = test: IL-1β-induced IL-8 release in HT29 cells; assay type: cell-based; conditions: Homo sapiens, HT-29, IL-1β-stimulated HT29 cells, read-out: IC50 Values for Inhibition of Cytokine Release, HT29 cells IL-8
Method: HT29 cells, a human colon adenocarcinorna cell line, are plated in a 96 well plate (24 hrs) and pre-treated with compounds at the desired concentration for 2 hours before addition of 5 ng/mL of IL-1β (Abcam) for 24 hours. Supernatants are harvested for IL-8 quantification by Sandwich ELISA (Duo-set, R&D System). The IC50 is determined from the dose response curve.

PBMCs [2] = test: IL-2 and IFN gamma release in CD3/CD28 stimulated PBMC cells; assay type: cell-based; conditions: Homo sapiens
Method: PBMCs from healthy subjects are separated from whole blood using a density gradient (Lymphoprep, Axis-Shield Healthcare). Cells are added to a 96 well plate pre-coated with a mixture of CD3/[…] monoclonal antibodies (0.3 μg/mL eBioscience and 3 μg/mL BD Pharmingen respectively). Compound at the desired concentration is then added to the wells and the plate left for 3 days under normal tissue culture conditions. Supernatants are harvested and IL-2 and IFN gamma release determined by Sandwich ELISA (Duo-set, R&D System). The IC50 is determined from the dose response curve.

[3] = system: TNBS-induced colitis in mice; test: TNBS-induced colitis in mice; assay type: in vivo
Method: Non-fasted, 10-12 week old, male BDF1 mice are dosed by oral gavage twice daily with either vehicle (5 mL/kg), reference item (Budesonide 2.5 mg/kg) or test compound (1 or 5 mg/kg) one day before (Day −1) stimulation of the inflammatory response by treatment with 2,4,6-trinitrobenzenesuiphonic acid (TNBS) (15 mg/mL in 50% ethanol/50% saline). On Day 0 of the study TNBS (200 μL) is administered intra-colonically via a plastic catheter followed by BID dosing of the vehicle, reference or test compound for 2 or 4 days. During the study animals are weighed every day and stool observations are made and recorded as a score, based on stool consistency. At the time of sacrifice on Day 2 (or Day 4) the large intestine is removed and the length and weight recorded. Sections of the colon are taken for either MPO analysis to determine neutrophil infiltration or for histopathology involving scoring to determine disease severity.

[4] = IL-8, read-out: IC50 Values for Inhibition of Cytokine Release, dU937 cells IL-8
[5] = TNFα (REC50 relative to BIRB796 per method), read-out: IC50 Values for Inhibition of Cytokine Release, dU937 cells TNFα
[6] = IL-2, read-out: IC50 Values for Inhibition of Cytokine Release, PBMCs IL-2
[7] = IFNγ, read-out: IC50 Values for Inhibition of Cytokine Release, PBMCs IFNγ

Sequence of p38 MAPKα (Q16539 whole entry): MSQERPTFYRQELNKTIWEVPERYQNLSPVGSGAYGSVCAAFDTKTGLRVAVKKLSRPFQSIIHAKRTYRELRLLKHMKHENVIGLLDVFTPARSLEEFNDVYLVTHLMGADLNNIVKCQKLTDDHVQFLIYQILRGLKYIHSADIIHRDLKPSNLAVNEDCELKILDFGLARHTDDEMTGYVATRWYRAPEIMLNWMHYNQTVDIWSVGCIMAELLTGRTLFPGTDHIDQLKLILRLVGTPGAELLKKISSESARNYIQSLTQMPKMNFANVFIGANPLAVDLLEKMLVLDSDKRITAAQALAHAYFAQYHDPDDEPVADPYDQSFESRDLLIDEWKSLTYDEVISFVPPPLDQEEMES
Sequence of GSK3α (P49840 whole entry): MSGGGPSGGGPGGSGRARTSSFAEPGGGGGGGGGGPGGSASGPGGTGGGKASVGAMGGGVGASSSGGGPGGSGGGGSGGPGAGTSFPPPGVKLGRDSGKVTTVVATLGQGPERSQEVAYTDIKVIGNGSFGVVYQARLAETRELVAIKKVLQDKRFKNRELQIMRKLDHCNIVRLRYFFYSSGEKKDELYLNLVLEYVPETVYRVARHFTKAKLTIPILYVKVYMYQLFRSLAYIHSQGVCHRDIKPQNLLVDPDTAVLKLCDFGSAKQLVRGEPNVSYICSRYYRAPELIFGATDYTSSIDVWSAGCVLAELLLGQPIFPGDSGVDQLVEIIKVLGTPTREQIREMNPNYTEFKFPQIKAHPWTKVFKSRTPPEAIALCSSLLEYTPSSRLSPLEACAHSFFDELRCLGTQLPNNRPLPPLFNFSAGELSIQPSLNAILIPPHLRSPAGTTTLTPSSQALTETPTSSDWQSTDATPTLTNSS
Sequence of c-Src (P12931 whole entry, looked up): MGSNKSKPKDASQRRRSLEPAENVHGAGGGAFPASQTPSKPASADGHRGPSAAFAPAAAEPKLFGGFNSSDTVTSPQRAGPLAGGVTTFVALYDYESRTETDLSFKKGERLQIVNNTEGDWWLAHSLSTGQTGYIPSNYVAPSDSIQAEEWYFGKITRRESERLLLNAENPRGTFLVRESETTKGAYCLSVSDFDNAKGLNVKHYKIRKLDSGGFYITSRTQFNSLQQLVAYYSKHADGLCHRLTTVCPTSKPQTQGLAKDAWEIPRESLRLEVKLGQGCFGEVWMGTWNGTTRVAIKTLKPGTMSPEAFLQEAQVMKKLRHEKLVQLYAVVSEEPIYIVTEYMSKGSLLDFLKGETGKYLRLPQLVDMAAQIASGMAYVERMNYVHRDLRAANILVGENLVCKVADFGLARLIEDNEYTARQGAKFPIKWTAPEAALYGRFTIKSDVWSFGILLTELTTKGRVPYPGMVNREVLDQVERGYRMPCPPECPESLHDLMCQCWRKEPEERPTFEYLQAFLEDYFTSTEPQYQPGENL

SMILES | IC50 (d-U937 cells; [4]) [nM] | IC50 (d-U937 cells; [5]) [nM] | IC50 (p38 MAPKα) [nM] | IC50 (c-Src) [nM] | IC50 (Syk) [nM] | IC50 (GSK3α) [nM] | IC50 (HT29 cells) [nM] | IC50 (PBMCs [1]) [nM] | IC50 (PBMCs [2]; [6]) [nM] | TNBS Ulcer grade ([3]; 5 mg/kg oral, conducted over 2 days, vehicle 3.6 ± 0.3 (exp. 1), 4.4 ± 0.2 (exp. 2)) | TNBS LP inflammation ([3]; 5 mg/kg oral, conducted over 2 days, vehicle 3.9 ± 0.3 (exp. 1), 4.5 ± 0.2 (exp. 2)) | activity in in vivo model of colonic inflammation (histopathology analysis) ([3]; conducted over 2 days) | inflammatory cell infiltrate in the reticular and laminar propria zone ([3]; dosed orally at 5 mg/kg) | ulcer grade and epithelial repair compared to the vehicle control ([3]; dosed orally at 5 mg/kg) | IC50 (PBMCs [2]; [7]) [nM]
CC(C)(C)c1cc(NC(=O)Nc2ccc(Oc3ccnc(Nc4ccccc4)n3)c3ccccc23)n(-c2cccc(CP(C)(C)=O)c2)n1 [Example 23, 1-(3-(tert-Butyl)-1-(3-((dimethylphosphoryl)methyl)phenyl)-1H-pyrazol-5-yl)-3-(4-((2-(phenylamino)pyrimidin-4-yl)oxy)naphthalen-1-yl)urea] | 2.2 | 1.4 | 265 | 40 | 97 | 1640 | 13.5 | 7.5 | 42.7 |  |  |  |  |  | 
Cc1cc(Nc2nccc(Oc3ccc(NC(=O)Nc4cc(C(C)(C)C)nn4-c4cccc(CP(C)(C)=O)c4)c4ccccc34)n2)cc2cn[nH]c12 [Example 32, 1-(3-(tert-Butyl)-1-(3-((dimethylphosphoryl)methyl)phenyl)-1H-pyrazol-5-yl)-3-(4-((2-((7-methyl-1H-indazol-5-yl)amino)pyrimidin-4-yl)oxy)naphthalen-1-yl)urea] |  |  | 60 | 5 | 5 | 1320 | 1.9 | 1.3 | 4.2 | 3.3 ± 0.4 | 2.7 ± 0.4 | significant activity | marked reduction | marked improvements | 2.3
CC(C)(C)c1cc(NC(=O)Nc2ccc(Oc3ccnc(Nc4cc(OC(F)(F)F)cc(C(=O)NCCN5CCOCC5)c4)n3)c3ccccc23)n(-c2cccc(CP(C)(C)=O)c2)n1 [Example 59, 3-((4-((4-(3-(3-(tert-Butyl)-1-(3-((dimethylphosphoryl)methyl)phenyl)-1H-pyrazol-5-yl)-ureido)naphthalen-1-yl)oxy)pyrimidin-2-yl)amino)-N-(2-morpholinoethyl)-5-(trifluoromethoxy)benzamide] | 0.9 |  | 81 | 7 | 18 | 1240 | 1.9 | 0.8 | 75.1 |  |  |  |  |  | 2.5

Compounds with a lower IC50 (p38 MAPKα), results first:

IC50 (d-U937 cells; [4]) [nM] | IC50 (d-U937 cells; [5]) [nM] | IC50 (p38 MAPKα) [nM] | IC50 (c-Src) [nM] | IC50 (Syk) [nM] | IC50 (GSK3α) [nM] | IC50 (HT29 cells) [nM] | SMILES | IC50 (PBMCs [1]) [nM] | IC50 (PBMCs [2]; [6]) [nM] | TNBS Ulcer grade ([3]; 5 mg/kg oral, conducted over 2 days, vehicle 3.6 ± 0.3 (exp. 1), 4.4 ± 0.2 (exp. 2)) | TNBS LP inflammation ([3]; 5 mg/kg oral, conducted over 2 days, vehicle 3.9 ± 0.3 (exp. 1), 4.5 ± 0.2 (exp. 2)) | activity in in vivo model of colonic inflammation (histopathology analysis) ([3]; conducted over 2 days) | inflammatory cell infiltrate in the reticular and laminar propria zone ([3]; dosed orally at 5 mg/kg) | ulcer grade and epithelial repair compared to the vehicle control ([3]; dosed orally at 5 mg/kg) | IC50 (PBMCs [2]; [7]) [nM]
 | 3.9 | 21 |  |  | 1130 | 6.5 | COCCOCCOCCOc1cc(Nc2nccc(Oc3ccc(NC(=O)Nc4cc(C(C)C)nn4-c4cccc(CP(C)(C)=O)c4)c4ccccc34)n2)cc(OC)c1 [Example 45, 1-(1-(3-((Dimethylphosphoryl)methyl)phenyl)-3-isopropyl-1H-pyrazol-5-yl)-3-(4-((2-((3-methoxy-5-(2-(2-(2-methoxyethoxy)ethoxy)ethoxy)phenyl)amino)pyrimidin-4-yl)oxy)naphthalen-1-yl)urea] | 3.3 | 19.3 |  |  |  |  |  | 
2.9 | 1.6 | 10 | 2 | 3 | 1250 | 27 | COc1cc(Nc2nccc(Oc3ccc(NC(=O)Nc4cc(C(C)C)nn4-c4cccc(CP(C)(C)=O)c4)c4ccccc34)n2)cc(C(=O)NCCN2CCOCC2)c1 [Example 38, 3-((4-((4-(3-(1-(3-((Dimethylphosphoryl)methyl)phenyl)-3-isopropyl-1H-pyrazol-5-yl)-ureido)naphthalen-1-yl)oxy)pyrimidin-2-yl)amino)-5-methoxy-N-(2-morpholinoethyl)-benzamide] | 3.8 | 9.2 |  |  |  |  |  | 
